Experimental data from patent US20140288074A1, “FUNGICIDAL PYRAZOLES” (E I DU PONT DE NEMOURS AND COMPANY, priority 2013, published 2014).

Columns and labels:
Assay type in all cases: in vivo
Botrytis cinerea = assay: Test A: preventive spray on tomato seedlings, tomato Botrytis, visual disease rating; details: 200 ppm test suspension, Botrytis cinerea inoculated the day after spraying; for pest or weed control at 200 ppm: 120 h
Experimental: General protocol for preparing test suspensions for Tests A-G: the test compounds were first dissolved in acetone in an amount equal to 3% of the final volume and then suspended at the desired concentration (in ppm) in acetone and purified water (50/50 mix by volume) containing 250 ppm of the surfactant Trem® 014 (polyhydric alcohol esters). The resulting test suspensions were then used in Tests A-G. Each test was conducted in triplicate, and the results were averaged. Spraying a 200 ppm test suspension to the point of run-off on the test plants was the equivalent of a rate of 800 g/ha. Unless otherwise indicated, the rating values indicate a 200 ppm test suspension was used. (An asterisk “*” next to the rating value indicates a 40 ppm test suspension was used.) The test suspension was sprayed to the point of run-off on tomato seedlings. The following day the seedlings were inoculated with a spore suspension of Botrytis cinerea (the causal agent of tomato Botrytis) and incubated in saturated atmosphere at 20° C. for 48 h, and then moved to a growth chamber at 24° C. for 3 additional days, after which time visual disease ratings were made. Results for Tests A-G are given in Table A. In the Table, a rating of 100 indicates 100% disease control and a rating of 0 indicates no disease control (relative to the controls). A hyphen (-) indicates no test results.

Septoria nodorum = assay: Test C: preventive spray on wheat seedlings, Septoria glume blotch, visual disease rating; details: 200 ppm test suspension, Septoria nodorum inoculated the day after spraying; for pest or weed control at 200 ppm: Parastagonospora nodorum, 264 h
Experimental: General protocol for preparing test suspensions for Tests A-G: the test compounds were first dissolved in acetone in an amount equal to 3% of the final volume and then suspended at the desired concentration (in ppm) in acetone and purified water (50/50 mix by volume) containing 250 ppm of the surfactant Trem® 014 (polyhydric alcohol esters). The resulting test suspensions were then used in Tests A-G. Each test was conducted in triplicate, and the results were averaged. Spraying a 200 ppm test suspension to the point of run-off on the test plants was the equivalent of a rate of 800 g/ha. Unless otherwise indicated, the rating values indicate a 200 ppm test suspension was used. (An asterisk “*” next to the rating value indicates a 40 ppm test suspension was used.) The test suspension was sprayed to the point of run-off on wheat seedlings. The following day the seedlings were inoculated with a spore suspension of Septoria nodorum (the causal agent of Septoria glume blotch) and incubated in a saturated atmosphere at 24° C. for 48 h, and then moved to a growth chamber at 20° C. for 9 days, after which time visual disease ratings were made. Results for Tests A-G are given in Table A. In the Table, a rating of 100 indicates 100% disease control and a rating of 0 indicates no disease control (relative to the controls). A hyphen (-) indicates no test results.

Septoria tritici = assay: Test D: preventive spray on wheat seedlings, wheat leaf blotch, visual disease rating; details: 200 ppm test suspension, Septoria tritici inoculated the day after spraying; for pest or weed control at 200 ppm: Zymoseptoria tritici, 504 h
Experimental: General protocol for preparing test suspensions for Tests A-G: the test compounds were first dissolved in acetone in an amount equal to 3% of the final volume and then suspended at the desired concentration (in ppm) in acetone and purified water (50/50 mix by volume) containing 250 ppm of the surfactant Trem® 014 (polyhydric alcohol esters). The resulting test suspensions were then used in Tests A-G. Each test was conducted in triplicate, and the results were averaged. Spraying a 200 ppm test suspension to the point of run-off on the test plants was the equivalent of a rate of 800 g/ha. Unless otherwise indicated, the rating values indicate a 200 ppm test suspension was used. (An asterisk “*” next to the rating value indicates a 40 ppm test suspension was used.) The test suspension was sprayed to the point of run-off on wheat seedlings. The following day the seedlings were inoculated with a spore suspension of Septoria tritici (the causal agent of wheat leaf blotch) and incubated in saturated atmosphere at 24° C. for 48 h. and then the seedlings were moved to a growth chamber at 20° C. for 19 additional days, after which time visual disease ratings were made. Results for Tests A-G are given in Table A. In the Table, a rating of 100 indicates 100% disease control and a rating of 0 indicates no disease control (relative to the controls). A hyphen (-) indicates no test results.

[1] = test system: Puccinia recondita f. sp. tritici; assay: Test F: preventive spray on wheat seedlings, wheat leaf rust, visual disease rating; details: 200 ppm test suspension, Puccinia recondita f. sp. tritici inoculated the day after spraying; for pest or weed control at 200 ppm: 168 h
Experimental: General protocol for preparing test suspensions for Tests A-G: the test compounds were first dissolved in acetone in an amount equal to 3% of the final volume and then suspended at the desired concentration (in ppm) in acetone and purified water (50/50 mix by volume) containing 250 ppm of the surfactant Trem® 014 (polyhydric alcohol esters). The resulting test suspensions were then used in Tests A-G. Each test was conducted in triplicate, and the results were averaged. Spraying a 200 ppm test suspension to the point of run-off on the test plants was the equivalent of a rate of 800 g/ha. Unless otherwise indicated, the rating values indicate a 200 ppm test suspension was used. (An asterisk “*” next to the rating value indicates a 40 ppm test suspension was used.) The test suspension was sprayed to the point of run-off on wheat seedlings. The following day the seedlings were inoculated with a spore suspension of Puccinia recondita f. sp. tritici (the causal agent of wheat leaf rust) and incubated in a saturated atmosphere at 20° C. for 24 h, and then moved to a growth chamber at 20° C. for 6 days, after which time visual disease ratings were made. Results for Tests A-G are given in Table A. In the Table, a rating of 100 indicates 100% disease control and a rating of 0 indicates no disease control (relative to the controls). A hyphen (-) indicates no test results.

[2] = test system: Blumeria graminis f. sp. tritici; assay: Test G: preventive spray on wheat seedlings, wheat powdery mildew, visual disease rating;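 on all read-outs here: rated 8 days after spore dust inoculation at 20 °C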; details: 200 ppm test suspension, Blumeria graminis f. sp. tritici inoculated the day after spraying; for pest or weed control at 200 ppm: 192 h
Experimental: General protocol for preparing test suspensions for Tests A-G: the test compounds were first dissolved in acetone in an amount equal to 3% of the final volume and then suspended at the desired concentration (in ppm) in acetone and purified water (50/50 mix by volume) containing 250 ppm of the surfactant Trem® 014 (polyhydric alcohol esters). The resulting test suspensions were then used in Tests A-G. Each test was conducted in triplicate, and the results were averaged. Spraying a 200 ppm test suspension to the point of run-off on the test plants was the equivalent of a rate of 800 g/ha. Unless otherwise indicated, the rating values indicate a 200 ppm test suspension was used. (An asterisk “*” next to the rating value indicates a 40 ppm test suspension was used.) The test suspension was sprayed to the point of run-off on wheat seedlings. The following day the seedlings were inoculated with a spore dust of Blumeria graminis f. sp. tritici (also known as Erysiphe graminis f. sp. tritici, the causal agent of wheat powdery mildew) and incubated in a growth chamber at 20° C. for 8 days, after which time visual disease ratings were made. Results for Tests A-G are given in Table A. In the Table, a rating of 100 indicates 100% disease control and a rating of 0 indicates no disease control (relative to the controls). A hyphen (-) indicates no test results.

SMILES | pest or weed control at 200 ppm (Botrytis cinerea) [%] | pest or weed control at 200 ppm (Septoria nodorum) [%] | pest or weed control at 200 ppm (Septoria tritici) [%] | pest or weed control at 200 ppm [1] [%] | pest or weed control at 200 ppm [2] [%] | Test A rating (disease control) (Botrytis cinerea) [%] | Test C rating (disease control) (Septoria nodorum) [%] | Test D rating (disease control) (Septoria tritici) [%] | Test F rating (disease control) [1] [%] | Test G rating (disease control) [2] [%]
Cc1nn(C)c(OCC(C)C)c1-c1c(F)cc(F)cc1F [Compound 22, 1,3-dimethyl-5-(2-methylpropoxy)-4-(2,4,6-trifluorophenyl)-1H-pyrazole] | 0 | 0 | 0 | 17 | 0 |  |  |  |  | 
Cc1nn(C)c(OC2CCCCC2)c1-c1ccc(F)cc1Cl [Compound 28, 4-(2-chloro-4-fluorophenyl)-5-(cyclohexyloxy)-1,3-dimethyl-1H-pyrazole] | 95 | 0 | 100 | 58 | 73 |  |  |  |  | 
Cc1nn(C)c(N2CCCCC2)c1-c1ccc(F)cc1Cl [Compound 41] |  |  |  |  |  | 99 | 0 | 88 | 44 | 0
Cc1nn(C)c(NC(C)C)c1-c1c(F)cc(F)cc1F [Compound 49] |  |  |  |  |  | 40 | 98 | 0 | 98 | 0
CNC(c1c(-c2c(F)cccc2Cl)c(C)nn1C)C(C)C (stereo not drawn) [Compound 25, 4-(2-chloro-6-fluorophenyl)-N,1,3-trimethyl-α-(1-methylethyl)-1H-pyrazole-5-methanamine] | 0 | 100 | 25 | 99 | 99 |  |  |  |  | 
COCCN(CCOC)c1c(-c2ccc(F)cc2Br)c(C)nn1C [Compound 46] |  |  |  |  |  | 0 | 86 | 0 | 68 | 13
Cc1nn(C)c(NC(C)C)c1-c1ccc(F)cc1Br [Compound 38] |  |  |  |  |  | 100 | 100 | 46 | 100 | 0
CCCCNc1c(-c2ccc(F)cc2Br)c(C)nn1C [Compound 36] |  |  |  |  |  | 67 | 100 | 50 | 100 | 0
Cc1nn(C)c(N2CCCCC2C)c1-c1ccc(F)cc1Cl (stereo not shown) [Compound 43] |  |  |  |  |  | 73 | 0 | 36 | 19 | 43
COCCOc1c(-c2ccc(F)cc2Cl)c(C)nn1C [Compound 30, 4-(2-chloro-4-fluorophenyl)-5-(2-methoxyethoxy)-1,3-dimethyl-1H-pyrazole] | 91 | 0 | 85 | 58 | 0 |  |  |  |  | 
CCCCNc1c(-c2c(F)cc(F)cc2F)c(C)nn1C [Compound 47] |  |  |  |  |  | 30 | 95 | 57 | 98 | 0
CCC(C)C(N)c1c(-c2c(F)cccc2Cl)c(C)nn1C (stereo not drawn) [Compound 33, 4-(2-chloro-6-fluorophenyl)-1,3-dimethyl-α-(1-methylpropyl)-1H-pyrazole-5-methanamine] | 90 | 98 | 92 | 80 | 56 |  |  |  |  | 
COCCNc1c(-c2ccc(F)cc2Br)c(C)nn1C [Compound 45] |  |  |  |  |  | 9 | 77 | 0 | 68 | 0
CCC(C)COc1c(-c2ccc(F)cc2Br)c(C)nn1C (stereo not shown) [Compound 23, 4-(2-bromo-4-fluorophenyl)-1,3-dimethyl-5-(2-methylbutoxy)-1H-pyrazole] | 70 | 0 | 95 | 9 | 0 |  |  |  |  | 
COCCNc1c(-c2c(F)cc(F)cc2F)c(C)nn1C [Compound 54] |  |  |  |  |  | 0 | 97 | 92 | 95 | 0
Cc1nn(C)c(C(N)C(C)C)c1-c1c(F)cccc1Cl (stereo not shown) [Compound 32] |  |  |  |  |  | 0 | 100 | 94 | 96 | 0
CSC(c1c(-c2c(F)cccc2Cl)c(C)nn1C)C(C)C (stereo not shown) [Compound 26, 4-(2-chloro-6-fluorophenyl)-1,3-dimethyl-5-[2-methyl-1-(methylthio)propyl]-1H-pyrazole] | 0 | 99 | 3 | 98 | 0 |  |  |  |  | 
